Reference: US20080125424A1, “Derivatives of urea and related diamines, methods for their manufacture, and uses therefor” (priority 2006, published 2008)

Biological target: T1, human parathyroid cell Ca2+ receptor (hPCaR) (Homo sapiens, UniProt P41180)
T1 construct: expressed in transfected cells
T1 sequence (P41180 20-1078): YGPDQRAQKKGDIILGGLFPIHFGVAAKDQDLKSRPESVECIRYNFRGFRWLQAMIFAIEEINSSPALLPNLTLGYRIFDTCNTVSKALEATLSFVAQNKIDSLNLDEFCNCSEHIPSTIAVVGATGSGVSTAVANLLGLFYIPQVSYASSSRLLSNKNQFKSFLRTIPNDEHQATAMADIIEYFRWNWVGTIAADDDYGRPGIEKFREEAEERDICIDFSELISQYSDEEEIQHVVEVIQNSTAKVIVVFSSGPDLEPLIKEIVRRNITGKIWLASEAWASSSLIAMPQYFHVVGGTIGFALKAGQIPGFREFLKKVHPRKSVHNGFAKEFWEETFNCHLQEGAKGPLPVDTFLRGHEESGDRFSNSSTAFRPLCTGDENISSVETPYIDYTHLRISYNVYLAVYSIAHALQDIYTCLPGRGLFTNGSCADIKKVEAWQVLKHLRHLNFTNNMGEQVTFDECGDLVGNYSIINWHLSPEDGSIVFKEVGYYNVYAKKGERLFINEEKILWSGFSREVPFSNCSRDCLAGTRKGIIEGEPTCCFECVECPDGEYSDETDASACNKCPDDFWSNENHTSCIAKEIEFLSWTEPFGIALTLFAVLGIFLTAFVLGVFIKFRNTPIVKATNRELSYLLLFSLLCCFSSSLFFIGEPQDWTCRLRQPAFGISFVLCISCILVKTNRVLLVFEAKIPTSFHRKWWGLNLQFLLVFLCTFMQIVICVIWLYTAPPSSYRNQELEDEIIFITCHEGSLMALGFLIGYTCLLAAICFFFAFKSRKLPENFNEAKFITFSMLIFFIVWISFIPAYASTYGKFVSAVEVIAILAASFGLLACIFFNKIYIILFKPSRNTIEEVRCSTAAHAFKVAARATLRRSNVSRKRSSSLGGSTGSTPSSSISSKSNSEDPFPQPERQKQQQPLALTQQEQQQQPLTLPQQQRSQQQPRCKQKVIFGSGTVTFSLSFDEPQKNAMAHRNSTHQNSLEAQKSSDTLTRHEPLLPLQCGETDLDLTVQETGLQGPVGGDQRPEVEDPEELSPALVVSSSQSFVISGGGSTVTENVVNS
Assay: [Ca2+]i fluorescence assay in HEK 293 4.0-7 cells expressing hPCaR
Assay type: cell-based
Conditions: buffer with 1 mM CaCl2
Procedure: The activities of the compounds of the present invention on calcium receptors were measured. In one embodiment, the measurement was performed in accordance with the method described in Example 4 of Nemeth et al., PCT/US95/13704 (International Publication No. WO96/12697) herein incorporated by reference.
A 4.0-kb NotI-HindIII fragment of the human parathyroid cell Ca^2+ receptor (hPCaR) cDNA was subcloned into the mammalian expression vector pCEP4 (Invitrogen) containing the hygromycin-resistant gene as a selectable marker. This plasmid was transfected into HEK 293 cells by calcium phosphate precipitation. Transfected cells were grown in Dulbecco's modified Eagle's medium containing 10% fetal bovine serum and hygromycin (200 μg/mL). Hygromycin-resistant colonies were subcloned and assayed for hPCaR mRNA by solution hybridization using a ^32P-labeled RNA probe complementary to the (4.0 kb) hPCaR sequence (Garrett, et al., J. Biol. Chem. 270, 12919-12925 (1995)). Clone 7 was used to assess the effects of compounds on [Ca^2+]i. This stably transfected cell line was termed HEK 293 4.0-7. For measurements of [Ca^2+]i, the cells were recovered from tissue culture flasks by brief treatment with Versene (Invitrogen; Containing 0.2 g/L EDTA.4Na in phosphate-buffered saline) and then seeded in collagen coated 384-well plates (BD Biosciences) at 20K cells per well in the growth media (same as above). Cells were grown in 37c TC incubator overnight. Then, the media was discarded and cells were loaded with 1× dye from Ca^2+ Assay Kit I (BD Biosciences) in parathyroid cell buffer (126 mM NaCl, 4 mM KCl, 1 mM MgSO4, 0.7 mM K2HPO4/KH2PO4, 20 mM HEPES.NaOH (pH 7.45)) containing 0.5% BSA and 1 mM CaCl2. Cells were loaded at room temperature for 90 minutes. Each test compound was added to the cells and the fluorescence was recorded by using excitation and emission wavelengths of 485 and 530 nm, respectively.

Structure (SMILES) | EC50 [nM]
O=C(CCCN(CCC(c1ccccc1)c1ccccc1)C(=O)Nc1nc2ccccc2s1)N1CCOCC1 [Example 94, 3-(benzo[d]thiazol-2-yl)-1-(3,3-diphenylpropyl)-1-(4-morpholino-4-oxobutyl)urea] | 100 to 1000
CC(C)(C)OC(=O)N1CCN(C(=O)CCCN(CCC(c2ccccc2)c2ccccc2)C(=O)Nc2nc3ccccc3s2)CC1 [Example 95, tert-butyl 4-(4-(3-(benzo[d]thiazol-2-yl)-1-(3,3-diphenylpropyl)ureido)butanoyl)piperazine-1-carboxylate] | 100 to 1000
O=C(CCCN(CCC(c1ccccc1)c1ccccc1)C(=O)Nc1nc2ccccc2s1)NC1CCCCC1 [Example 97, 3-(benzo[d]thiazol-2-yl)-1-(4-(cyclohexylamino)-4-oxobutyl)-1-(3,3-diphenylpropyl)urea] | 100 to 1000
CS(=O)(=O)Nc1ccc(-c2nc(NC(=O)N(CCC(=O)O)CCC(c3ccccc3)c3ccccc3)sc2Cl)cc1 [Example 98, 3-(3-(5-chloro-4-(4-(methylsulfonamido)phenyl)thiazol-2-yl)-1-(3,3-diphenylpropyl)ureido)propanoic acid] | 100 to 1000
O=C(O)CCCN(CCC(c1ccccc1)c1ccccc1)C(=O)Nc1nc2ccccc2s1 [Example 104, 4-(3-(benzo[d]thiazol-2-yl)-1-(3,3-diphenylpropyl)ureido)butanoic acid] | 100 to 1000
O=C(CCCN(CCC(c1ccccc1)c1ccccc1)C(=O)Nc1nc2ccccc2s1)N1CCCCC1 [Example 105, 3-(benzo[d]thiazol-2-yl)-1-(3,3-diphenylpropyl)-1-(4-oxo-4-(piperidin-1-yl)butyl)urea] | 100 to 1000
CN(C)C(=O)CCN(CCC(c1ccccc1)c1ccccc1)C(=O)Nc1nc2ccccc2s1 [Example 107, 3-(benzo[d]thiazol-2-yl)-1-(3-(dimethylamino)-3-oxopropyl)-1-(3,3-diphenylpropyl)urea] | 100 to 1000
NC(=O)CCN(CCC(c1ccccc1)c1ccccc1)C(=O)Nc1nc(-c2ccccc2)c(Cl)s1 [Example 110, 1-(3-amino-3-oxopropyl)-3-(5-chloro-4-phenylthiazol-2-yl)-1-(3,3-diphenylpropyl)urea] | 100 to 1000
CS(=O)(=O)Nc1ccc(-c2csc(NC(=O)N(CCC(=O)O)CCC(c3ccccc3)c3ccccc3)n2)cc1 [Example 113, 3-(1-(3,3-diphenylpropyl)-3-(4-(4-(methylsulfonamido)phenyl)thiazol-2-yl)ureido)propanoic acid] | 100 to 1000
O=C(CCN(CCC(c1ccccc1)c1ccccc1)C(=O)Nc1nc2ccccc2s1)NCc1ccccc1 [Example 117, 3-(benzo[d]thiazol-2-yl)-1-(3-(benzylamino)-3-oxopropyl)-1-(3,3-diphenylpropyl)urea] | 100 to 1000
CC(C)N1CCN(C(=O)CCCN(CCC(c2ccccc2)c2ccccc2)C(=O)Nc2nc3ccccc3s2)CC1 [Example 118, 3-(benzo[d]thiazol-2-yl)-1-(3,3-diphenylpropyl)-1-(4-(4-isopropylpiperazin-1-yl)-4-oxobutyl)urea] | 100 to 1000

Next, values leading:

EC50 [nM] | Structure (SMILES)
100 to 1000 | O=C(CCN(CCC(c1ccccc1)c1ccccc1)C(=O)Nc1nc(-c2ccccc2)cs1)N[C@H]1CCCNC1 [Example 93, (S)-1-(3,3-diphenylpropyl)-1-(3-oxo-3-(piperidin-3-ylamino)propyl)-3-(4-phenylthiazol-2-yl)urea]
100 to 1000 | CC(C)(C)OC(=O)N1CCN(C(=O)CCCN(CCC(c2ccccc2)c2ccccc2)C(=O)Nc2nc(-c3ccccc3)cs2)CC1 [Example 96, tert-butyl 4-(4-(1-(3,3-diphenylpropyl)-3-(4-phenylthiazol-2-yl)ureido)butanoyl)piperazine-1-carboxylate]
100 to 1000 | C[C@@H]1CN(C(=O)CCCN(CCC(c2ccccc2)c2ccccc2)C(=O)Nc2nc(-c3ccccc3)cs2)CCN1 [Example 99, (R)-1-(3,3-diphenylpropyl)-1-(4-(3-methylpiperazin-1-yl)-4-oxobutyl)-3-(4-phenylthiazol-2-yl)urea]
100 to 1000 | C[C@H]1CNCCN1C(=O)CCCN(CCC(c1ccccc1)c1ccccc1)C(=O)Nc1nc(-c2ccccc2)cs1 [Example 100, (S)-1-(3,3-diphenylpropyl)-1-(4-(2-methylpiperazin-1-yl)-4-oxobutyl)-3-(4-phenylthiazol-2-yl)urea]
100 to 1000 | CC(C)(C)OC(=O)CCCN(CCC(c1ccccc1)c1ccccc1)C(=O)Nc1nc2ccccc2s1 [Example 101, tert-butyl 4-(3-(benzo[d]thiazol-2-yl)-1-(3,3-diphenylpropyl)ureido)butanoate]
100 to 1000 | O=C(CCN(CCC(c1ccccc1)c1ccccc1)C(=O)Nc1nc(-c2ccccc2)cs1)N[C@@H]1CCCNC1 [Example 102, (R)-1-(3,3-diphenylpropyl)-1-(3-oxo-3-(piperidin-3-ylamino)propyl)-3-(4-phenylthiazol-2-yl)urea]
100 to 1000 | O=C(CCN(CCC(c1ccccc1)c1ccccc1)C(=O)Nc1nc2ccccc2s1)N1CCOCC1 [Example 103, 3-(benzo[d]thiazol-2-yl)-1-(3,3-diphenylpropyl)-1-(3-morpholino-3-oxopropyl)urea]
100 to 1000 | O=C(CCN(CCC(c1ccccc1)c1ccccc1)C(=O)Nc1nc2ccccc2s1)N1CCNCC1 [Example 106, 3-(benzo[d]thiazol-2-yl)-1-(3,3-diphenylpropyl)-1-(3-oxo-3-(piperazin-1-yl)propyl)urea]
100 to 1000 | CN1CCN(C(=O)CCCN(CCC(c2ccccc2)c2ccccc2)C(=O)Nc2nc3ccccc3s2)CC1 [Example 108, 3-(benzo[d]thiazol-2-yl)-1-(3,3-diphenylpropyl)-1-(4-(4-methylpiperazin-1-yl)-4-oxobutyl)urea]
100 to 1000 | NC(=O)CCN(CCC(c1ccccc1)c1ccccc1)C(=O)Nc1nc2ccccc2s1 [Example 109, 1-(3-amino-3-oxopropyl)-3-(benzo[d]thiazol-2-yl)-1-(3,3-diphenylpropyl)urea]
100 to 1000 | O=C(O)CCCN(CCC(c1ccccc1)c1ccccc1)C(=O)Nc1nc(-c2ccccc2)cs1 [Example 111, 4-(1-(3,3-diphenylpropyl)-3-(4-phenylthiazol-2-yl)ureido)butanoic acid]
100 to 1000 | O=C(CCN(CCC(c1ccccc1)c1ccccc1)C(=O)Nc1nc2ccccc2s1)NC1CCCCC1 [Example 112, 3-(benzo[d]thiazol-2-yl)-1-(3-(cyclohexylamino)-3-oxopropyl)-1-(3,3-diphenylpropyl)urea]
100 to 1000 | O=C(O)CCN(CCC(c1ccccc1)c1ccccc1)C(=O)Nc1nc2ccccc2s1 [Example 114, 3-(3-(benzo[d]thiazol-2-yl)-1-(3,3-diphenylpropyl)ureido)propanoic acid]
100 to 1000 | C[C@H]1CN(C(=O)CCN(CCC(c2ccccc2)c2ccccc2)C(=O)Nc2nc3ccccc3s2)CCN1 [Example 115, (S)-3-(benzo[d]thiazol-2-yl)-1-(3,3-diphenylpropyl)-1-(3-(3-methylpiperazin-1-yl)-3-oxopropyl)urea]
100 to 1000 | CCOC(=O)CCCN(CCC(c1ccccc1)c1ccccc1)C(=O)Nc1nc2ccccc2s1 [Example 116, ethyl 4-(3-(benzo[d]thiazol-2-yl)-1-(3,3-diphenylpropyl)ureido)butanoate]
